According to the NIST ThermoML archive (doi:10.1016/j.fluid.2018.11.012):
± gives the expanded uncertainty stated by the source.

Tests used:
[1] = 298.15 K; 101.33 kPa; Liquid; Vibrating tube method
[2] = refractive index (Na D-line) (dimensionless); conditions: 298.15 K; 101.33 kPa; Liquid; Standard Abbe refractometry

Compound	mass density [1]	refractive index [2]
CCCCCCCCCCCCCC [tetradecane]	759.38 ± 0.26 kg/m3	1.4269 ± 0.0008
CC1CCC(=O)O1 (centres undefined) [γ-valerolactone]	1049.25 ± 0.3 kg/m3	1.4312 ± 0.0008
